Key:
[1] = system: human fibroblasts BJ-hTert cell line; assay: Selectivity, non-transformed fibroblasts BJ-hTert; assay type: cell-based; conditions: Fibroblast; BJ-hTert normal human cell line; concentrations up to 100 μM
Description: (§1) The in vitro antiproliferative activity of investigated compounds was evaluated against six human solid tumor cell lines: A549 (non-small cell lung), HBL-100, (breast), HeLa (cervix), SW1573 (non-small cell lung), as drug sensitive lines, T-47D (breast) and WiDr (colon) as drug resistant lines. These cell lines were a kind gift from Prof. G. J. Peters (VU Medical Center, Amsterdam, The Netherlands). For selectivity studies, the human fibroblasts BJ-hTert cell line was used, which was obtained from Dr. R. Freire (HUC, Tenerife, Canary Islands). Cells were kept in culture medium under standard conditions: RPMI 1640 medium, fetal bovine serum (5%), glutamine (2 mM), penicillin G (100 units/mL) and streptomycin (0.1 mg/mL). Antiproliferative tests were conducted as described earlier (Skehan et al., [1990]; Miranda et al., [2006]). Tested compounds were dissolved in DMSO at an initial concentration of 40 mM. DMSO was used as negative control (0.25% v/v). Antiproliferative activity of the compounds was expressed as GI50, which is the concentration of the compound that inhibits 50% of the culture growth.

[2] = system: HeLa (cervix); assay: Antiproliferative activity, HeLa; assay type: cell-based, human; conditions: for GI50: Homo sapiens
Description: as §1

[3] = system: WiDr (colon); assay: Antiproliferative activity, WiDr; assay type: cell-based, human; conditions: for GI50: Homo sapiens
Description: as §1

[4] = Total antioxidant capacity (TAOC), modified phosphomolybdenum method; conditions: concentration providing 0.500 of absorbance at 695 nm; mean ± SD, n = 3
Description: (§2) Volume of 0.4 mL of sample solution (50–1,000 μM) was mixed with 1.6 mL of reagent solution [0.6 M H2SO4, 28 mM Na3PO4, and 4 mM (NH4)2MoO4] and resulting mixtures were incubated at 95°C for 90 min. The cooled reaction mixtures were then centrifuged for 10 min (3,000 rpm). The absorbance of the supernatant solution was measured, 1 h after centrifugation, at 695 nm against reagent solution as blank. An increased absorbance in reading in both assays indicated increased antioxidant power, expressed as EC50 values (the sample concentration giving absorbance of 0.500 from the graph of absorbance at 700 nm or 695 nm against compound concentration) (Prieto et al., [1999]).

[5] = system: A549 (non-small cell lung); assay: Antiproliferative activity, A549; assay type: cell-based, human; conditions: for GI50: Homo sapiens
Description: as §1

[6] = Oxygen radical absorbance capacity (ORAC) assay; conditions: Trolox equivalents; mean ± SD, n = 3
Description: A modification of original protocol was used (Ou et al., [2001]). Stock solutions of fluorescein substrate (5 μM) and free radical generator AAPH (0.5 M) were prepared in 75 mM potassium phosphate buffer (pH = 7.4). Volume of 100 μL of sample solutions or Trolox in DMSO (20 μM) were mixed with 1,485 μL of buffer and 15 μL of fluorescein solution. The 30 min reaction at 37°C was initiated by adding 250 μL of AAPH solution. Fluorescence conditions were as follows: excitation and emission wavelengths 485 and 511 nm, respectively, slits 2 nm. The relative sample ORAC value was expressed as Trolox equivalents (TE).

[7] = target: T1, MAO B (Homo sapiens, UniProt P27338); assay: MAO B inhibition, discontinuous fluorimetric kynuramine assay; assay type: biochemical; conditions: for inhibition at 1 µM: 1 μM inhibitor, mean ± SD, n = 2, normalized to control
T1 construct: purchased Sigma-Aldrich
T1 sequence (P27338 1-520): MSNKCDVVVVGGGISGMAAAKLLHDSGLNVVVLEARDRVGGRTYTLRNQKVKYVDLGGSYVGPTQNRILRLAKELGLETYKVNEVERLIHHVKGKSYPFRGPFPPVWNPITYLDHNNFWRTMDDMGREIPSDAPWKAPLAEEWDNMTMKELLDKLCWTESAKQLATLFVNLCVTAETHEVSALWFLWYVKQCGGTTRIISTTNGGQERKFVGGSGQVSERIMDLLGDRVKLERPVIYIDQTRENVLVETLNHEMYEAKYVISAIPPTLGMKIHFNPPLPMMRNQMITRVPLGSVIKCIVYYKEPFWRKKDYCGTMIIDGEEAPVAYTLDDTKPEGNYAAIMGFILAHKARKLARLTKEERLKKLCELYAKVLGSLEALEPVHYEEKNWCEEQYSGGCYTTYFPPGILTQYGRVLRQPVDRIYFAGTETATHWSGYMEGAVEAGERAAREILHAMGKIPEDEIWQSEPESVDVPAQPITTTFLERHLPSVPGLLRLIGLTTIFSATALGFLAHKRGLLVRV
Description: MAO A and B inhibition capacities were investigated using a discontinuous fluorimetric assay (Meiring et al., [2013]) as described previously by using human recombinant membrane-bound MAO purchased from Sigma-Aldrich (Affini et al., [2018]). Briefly, remained enzyme activity with inhibitor, either 1 μM (one-point) or concentrations ranging from 0.0001 to 10 μM, was assessed in the presence of kynuramine [2 × KM, KM = 20 μM (MAO A), KM = 30 μM (MAO B)] in potassium phosphate buffer (pH 7.4). Reactions were started by addition of enzyme and stopped by manual addition of sodium hydroxide (2 N) after 20 min. Enzyme activity was determined by detection of 4-hydroxyquinoline (λEx = 320 nm, λEm = 405 nm). Data were analyzed using GraphPad PRISM 6. For one-point measurements data were calculated as percentage of control and expressed as mean ± standard deviation (%). […] Data were obtained from two (one-point measurements) or at least three (IC50 values) independent experiments, each performed in duplicates.

[8] = Total reducing power (TRP), modified potassium ferricyanide reduction method; conditions: concentration providing 0.500 of absorbance at 700 nm; mean ± SD, n = 3
Description: The mixture containing 0.5 mL of phosphate buffer (0.2 M, pH = 6.6), 0.5 mL of K3[Fe(CN)6] (1%; w/v) and 0.5 mL of the samples (100–1,500 μM) was incubated at 50°C for 20 min. A volume of 0.5 mL of trichloroacetic acid (TCA, 10%; w/v), 0.5 mL of Milli-Q water and 0.5 mL of FeCl3 (0.1%; w/v) was added, followed by intensive vortexing. The absorbance of the resulting mixture was measured after 60 min at 700 nm using phosphate buffer as blank (Oyaizu, [1986]).
as §2

[9] = system: SW1573 (non-small cell lung); assay: Antiproliferative activity, SW1573; assay type: cell-based, human; conditions: for GI50: Homo sapiens
Description: as §1

[10] = system: HBL-100 (breast); assay: Antiproliferative activity, HBL-100; assay type: cell-based, human; conditions: for GI50: Homo sapiens
Description: as §1

Row | Structure (SMILES) | melting point | GI50 [1] | antiproliferative activity class HeLa [2] | GI50 [2] | antiproliferative activity class WiDr [3] | GI50 [3] | EC50 [4] | antiproliferative activity class A549 [5] | GI50 [5] | ORAC [6] | inhibition at 1 µM [7] | IC50 ([7]; mean, 95% CI, at least three experiments) | EC50 [8] | antiproliferative activity class SW1573 [9] | GI50 [9] | antiproliferative activity class HBL-100 [10] | GI50 [10]
1 | C(=NNc1nc(-c2ccccc2)c[se]1)c1ccccc1 [Compound 1, 2-(2-benzylidenehydrazinyl)-4-phenyl-1,3-selenazole] | 178 to 180 °C | > 100 µM | moderate activity (moderate activity (GI50 = 10–100 μM)) | 41 ± 9.5 µM | good activity (good activity (GI50 = 1–10 μM)) | 4.8 ± 0.8 µM | 648 ± 55 µM | moderate activity (moderate activity (GI50 = 10–100 μM)) | 28 ± 7.1 µM | 0.75 ± 0.05 TE | 89.4 ± 1.5% | 0.252 µM | 990 ± 92 µM | moderate activity (moderate activity (GI50 = 10–100 μM)) | 24 ± 8 µM | moderate activity (moderate activity (GI50 = 10–100 μM)) | 91 ± 12 µM
2 | COc1ccc(-c2c[se]c(NN=Cc3ccccc3[N+](=O)[O-])n2)cc1 [Compound 2-OMe, 4-(4-methoxyphenyl)-2-(2-(2-nitrobenzylidene)hydrazinyl)-1,3-selenazole] | 165 to 166 °C | > 100 µM | – | 49 ± 12 µM | – | 22 ± 2.3 µM | 433 ± 39 µM | – | 22 ± 5.6 µM | 0.82 ± 0.07 TE | 35.9 ± 11.2% | – | 560 ± 53 µM | – | 46 ± 10 µM | – | > 100 µM
3 | O=[N+]([O-])c1ccccc1C=NNc1nc(-c2ccccc2)c[se]1 [Compound 2, 2-(2-(2-nitrobenzylidene)hydrazinyl)-4-phenyl-1,3-selenazole] | 183 to 184 °C | > 100 µM | good activity (good activity (GI50 = 1–10 μM)) | 6 ± 0.7 µM | good activity (good activity (GI50 = 1–10 μM)) | 5 ± 0.9 µM | 357 ± 41 µM | good activity (good activity (GI50 = 1–10 μM)) | 4.9 ± 1.5 µM | 0.82 ± 0.07 TE | 64.8 ± 6.1% | – | 390 ± 48 µM | good activity (good activity (GI50 = 1–10 μM)) | 5.3 ± 0.6 µM | – | 21 ± 8.6 µM
4 | COc1ccc(-c2c[se]c(NN=Cc3cccc([N+](=O)[O-])c3)n2)cc1 [Compound 3-OMe, 4-(4-methoxyphenyl)-2-(2-(3-nitrobenzylidene)hydrazinyl)-1,3-selenazole] | 201 to 203 °C | > 100 µM | – | 26 ± 2 µM | – | > 100 µM | 632 ± 50 µM | – | 52 ± 1 µM | 0.86 ± 0.07 TE | 23.8 ± 7.7% | – | 488 ± 46 µM | good activity (good activity (GI50 = 1–10 μM)) | 8.4 ± 0.2 µM | – | > 100 µM
5 | Cc1ccc(-c2c[se]c(NN=Cc3ccccc3[N+](=O)[O-])n2)cc1 [Compound 2-Me, 2-(2-(2-nitrobenzylidene)hydrazinyl)-4-(p-tolyl)-1,3-selenazole] | 170 to 171 °C | > 100 µM | good activity (good activity (GI50 = 1–10 μM)) | 7.4 ± 1.4 µM | good activity (good activity (GI50 = 1–10 μM)) | 8.2 ± 1 µM | 416 ± 45 µM | good activity (good activity (GI50 = 1–10 μM)) | 8.8 ± 2.2 µM | 0.77 ± 0.05 TE | 22.1 ± 8.7% | – | 470 ± 41 µM | good activity (good activity (GI50 = 1–10 μM)) | 4.6 ± 1.2 µM | – | 95 ± 8.1 µM
6 | Cc1ccc(-c2c[se]c(NN=Cc3cccc([N+](=O)[O-])c3)n2)cc1 [Compound 3-Me, 2-(2-(3-nitrobenzylidene)hydrazinyl)-4-(p-tolyl)-1,3-selenazole] | 203 to 206 °C | > 100 µM | – | 31 ± 4 µM | – | 55 ± 19 µM | 571 ± 45 µM | – | 44 ± 15 µM | 0.83 ± 0.05 TE | 7.4 ± 27% | – | 480 ± 50 µM | – | 18 ± 4.5 µM | – | 60 ± 9.5 µM
7 | O=[N+]([O-])c1cccc(C=NNc2nc(-c3ccccc3)c[se]2)c1 [Compound 3, 2-(2-(3-nitrobenzylidene)hydrazinyl)-4-phenyl-1,3-selenazole] | 216 to 218 °C | > 100 µM | – | 24 ± 7.1 µM | – | 40 ± 0.6 µM | 325 ± 38 µM | good activity (good activity (GI50 = 1–10 μM)) | 6.1 ± 0.8 µM | 0.90 ± 0.06 TE | 57.5 ± 11.4% | – | 420 ± 45 µM | – | 16 ± 4.8 µM | – | 28 ± 0.8 µM
8 | COc1ccc(-c2c[se]c(NN=Cc3ccccc3)n2)cc1 [Compound 1-OMe, 2-(2-benzylidenehydrazinyl)-4-(4-methoxyphenyl)-1,3-selenazole] | 180 to 182 °C | > 100 µM | – | > 100 µM | – | > 100 µM | 548 ± 53 µM | – | > 100 µM | 0.74 ± 0.06 TE | 33 ± 11.6% | – | 806 ± 85 µM | – | 42 ± 7.7 µM | – | > 100 µM

Reference: article PMC6037691, “Selenazolyl-hydrazones as Novel Selective MAO Inhibitors With Antiproliferative and Antioxidant Activities: Experimental and In-silico Studies” (Frontiers in Chemistry, 2018)
